# Test results reported in US20090036450A1, “PYRAZOLE COMPOUNDS AND USE THEREOF” (JAPAN TOBACCO, INC., priority 2006, published 2009).
# Where a name gives a salt, the structure may show the parent alone.
# Target: T1, human liver glycogen phosphorylase (Homo sapiens, UniProt P06737)
# T1 construct: made in house; host or cells: Sf9 insect cells (suspension of disrupted cells, diluted in BES buffer, not purified)
# T1 sequence (P06737 1-847): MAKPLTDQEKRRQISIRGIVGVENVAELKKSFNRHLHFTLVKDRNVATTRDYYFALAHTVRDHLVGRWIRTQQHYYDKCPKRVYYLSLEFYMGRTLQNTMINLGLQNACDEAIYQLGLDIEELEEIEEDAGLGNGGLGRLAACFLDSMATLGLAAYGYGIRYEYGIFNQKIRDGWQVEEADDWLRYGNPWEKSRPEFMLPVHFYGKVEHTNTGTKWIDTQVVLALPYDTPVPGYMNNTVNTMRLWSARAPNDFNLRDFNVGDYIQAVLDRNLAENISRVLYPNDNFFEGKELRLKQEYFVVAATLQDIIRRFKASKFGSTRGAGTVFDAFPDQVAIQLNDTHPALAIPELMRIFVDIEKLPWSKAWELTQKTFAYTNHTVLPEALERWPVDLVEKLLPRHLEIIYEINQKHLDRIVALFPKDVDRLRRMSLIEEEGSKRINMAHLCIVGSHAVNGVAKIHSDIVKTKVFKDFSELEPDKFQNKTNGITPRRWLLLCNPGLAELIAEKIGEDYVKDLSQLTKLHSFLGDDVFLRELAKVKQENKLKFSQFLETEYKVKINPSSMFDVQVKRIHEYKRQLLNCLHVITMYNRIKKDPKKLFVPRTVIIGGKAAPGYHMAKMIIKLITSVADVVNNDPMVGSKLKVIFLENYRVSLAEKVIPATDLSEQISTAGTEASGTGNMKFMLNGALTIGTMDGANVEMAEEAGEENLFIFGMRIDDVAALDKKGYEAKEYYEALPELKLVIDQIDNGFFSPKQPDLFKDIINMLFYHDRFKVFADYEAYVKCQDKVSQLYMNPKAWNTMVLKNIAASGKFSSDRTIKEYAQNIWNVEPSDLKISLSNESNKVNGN
# Assay: Liver glycogen phosphorylase activity, forward reaction system (NADPH detection at 340 nm)
# Type: biochemical
# Conditions: enzyme inhibitory activity against recombinant human liver glycogen phosphorylase (Sf9 cell lysate), room temperature, 75 minutes
# Method in brief: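 Recombinant human liver glycogen phosphorylase from Sf9 lysate, run in forward direction with glycogen and phosphate substrate plus glucose, coupled via phosphoglucomutase/G6PDH to NADPH formation. BES buffer pH 6.8, room temperature, 75 min; A340 change minus blank gives activity. IC50 from percent inhibition vs DMSO control.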
row,Compound,IC50
1,"COc1ccccc1-c1nnc(CNC(=O)c2cc(NC(=O)c3cc(F)c(F)cc3Cl)[nH]n2)o1 [Example 1-61, 5-(2-chloro-4,5-difluoro-benzoylamino)-1H-pyrazole-3-carboxylic acid [5-(2-methoxy-phenyl)-[1,3,4]oxadiazol-2-ylmethyl]-amide]",< 100 nM
2,"O=C(NCc1sccc1OCc1ccccc1)c1cc(NC(=O)c2cc(F)c(F)cc2Cl)[nH]n1 [Example 1-3, 5-(2-chloro-4,5-difluoro-benzoylamino)-1H-pyrazole-3-carboxylic acid (3-benzyloxy-thiophen-2-ylmethyl)-amide]",100 to 300 nM
3,"O=C(NCc1nnc(-c2ccc(Cl)cc2)o1)c1cc(NC(=O)c2cc(F)c(F)cc2Cl)[nH]n1 [Example 1-52, 5-(2-chloro-4,5-difluoro-benzoylamino)-1H-pyrazole-3-carboxylic acid [5-(4-chloro-phenyl)-[1,3,4]oxadiazol-2-ylmethyl]-amide]",< 100 nM
4,"Cc1ccc(-c2nc(C)c(CNC(=O)c3cc(NC(=O)c4cc(F)c(F)cc4Cl)[nH]n3)s2)s1 [Example 1-7, 5-(2-chloro-4,5-difluoro-benzoylamino)-1H-pyrazole-3-carboxylic acid [4-methyl-2-(5-methyl-thiophen-2-yl)-thiazol-5-ylmethyl]-amide]",< 100 nM
5,"CCOC(=O)c1nc(C)c(CNC(=O)c2cc(NC(=O)c3cc(F)c(F)cc3Cl)[nH]n2)s1 [Example 1-10, 5-(2-chloro-4,5-difluoro-benzoylamino)-1H-pyrazole-3-carboxylic acid (2-ethoxycarbonyl-4-methyl-thiazol-5-ylmethyl)-amide]",< 100 nM
6,"Cc1ccccc1-c1nnc(CNC(=O)c2cc(NC(=O)c3cc(F)c(F)cc3Cl)[nH]n2)o1 [Example 1-53, 5-(2-chloro-4,5-difluoro-benzoylamino)-1H-pyrazole-3-carboxylic acid [5-(2-methyl-phenyl)-[1,3,4]oxadiazol-2-ylmethyl]-amide]",< 100 nM
7,"Cc1cccc(-c2nc(C)oc2CNC(=O)c2cc(NC(=O)c3cc(F)c(F)cc3Cl)[nH]n2)c1 [Example 1-30, 5-(2-chloro-4,5-difluoro-benzoylamino)-1H-pyrazole-3-carboxylic acid [4-(3-methyl-phenyl)-2-methyl-oxazol-5-ylmethyl]-amide]",< 100 nM
8,"Cc1nc(COCc2ccccc2)oc1CNC(=O)c1cc(NC(=O)c2cc(F)c(F)cc2Cl)[nH]n1 [Example 1-47, 5-(2-chloro-4,5-difluoro-benzoylamino)-1H-pyrazole-3-carboxylic acid (2-benzyloxymethyl-4-methyl-oxazol-5-ylmethyl)-amide]",< 100 nM

# Next, values leading:
row,IC50,Compound
1,< 100 nM,"Cc1noc(-c2noc(C)c2CNC(=O)c2cc(NC(=O)c3cc(F)c(F)cc3Cl)[nH]n2)n1 [Example 1-70, 5-(2-chloro-4,5-difluoro-benzoylamino)-1H-pyrazole-3-carboxylic acid [5-methyl-3-(3-methyl-[1,2,4]oxadiazol-5-yl)-isoxazol-4-ylmethyl]-amide]"
2,< 100 nM,"Cc1nc(C(=O)N(C)Cc2ccccc2)oc1CNC(=O)c1cc(NC(=O)c2cc(F)c(F)cc2Cl)[nH]n1 [Example 3-25, 5-({[5-(2-chloro-4,5-difluoro-benzoylamino)-1H-pyrazole-3-carbonyl]-amino}-methyl)-4-methyl-oxazole-2-carboxylic acid benzyl-methyl-amide]"
3,< 100 nM,"O=C(NCc1n[nH]c(-c2ccc(Cl)cc2)n1)c1cc(NC(=O)c2cc(F)c(F)cc2Cl)[nH]n1 [Example 1-87, 5-(2-chloro-4,5-difluoro-benzoylamino)-1H-pyrazole-3-carboxylic acid [5-(4-chloro-phenyl)-1H-[1,2,4]triazol-3-ylmethyl]-amide]"
4,100 to 300 nM,"O=C(NCc1nnc(-c2cc3ccccc3s2)o1)c1cc(NC(=O)c2cc(F)c(F)cc2Cl)[nH]n1 [Example 1-77, 5-(2-chloro-4,5-difluoro-benzoylamino)-1H-pyrazole-3-carboxylic acid (5-benzo[b]thiophen-2-yl-[1,3,4]oxadiazol-2-ylmethyl)-amide]"
5,< 100 nM,"Cc1nc(CNC(=O)c2cc(NC(=O)c3cc(F)c(F)cc3Cl)[nH]n2)oc1C(=O)O [Example 3-18, 5-(2-chloro-4,5-difluoro-benzoylamino)-1H-pyrazole-3-carboxylic acid (5-carboxy-4-methyl-oxazol-2-ylmethyl)-amide]"
6,< 100 nM,"CCN(CC)C(=O)COCc1nc(C)c(CNC(=O)c2cc(NC(=O)c3cc(F)c(F)cc3Cl)[nH]n2)o1 [Example 3-8, 5-(2-chloro-4,5-difluoro-benzoylamino)-1H-pyrazole-3-carboxylic acid (2-diethylcarbamoyl methoxymethyl-4-methyl-oxazol-5-ylmethyl)-amide]"
7,< 100 nM,"Cc1ccc(S(=O)(=O)NCc2nc(C)c(CNC(=O)c3cc(NC(=O)c4cc(F)c(F)cc4Cl)[nH]n3)o2)cc1 [Example 3-11, 5-(2-chloro-4,5-difluoro-benzoylamino)-1H-pyrazole-3-carboxylic acid {4-methyl-2-[(toluene-4-sulfonylamino)-methyl]-oxazol-5-ylmethyl}-amide]"
8,< 100 nM,"Cc1noc(-c2nc(C)oc2CNC(=O)c2cc(NC(=O)c3cc(F)c(F)cc3Cl)[nH]n2)n1 [Example 1-71, 5-(2-chloro-4,5-difluoro-benzoylamino)-1H-pyrazole-3-carboxylic acid [2-methyl-4-(3-methyl-[1,2,4]oxadiazol-5-yl)-oxazol-5-ylmethyl]-amide]"
9,< 100 nM,"O=C(NCc1cnc(C2CC2)nc1C1CC1)c1cc(NC(=O)c2cc(F)c(F)cc2Cl)[nH]n1 [Example 1-82, 5-[2-chloro-4,5-difluoro-benzoylamino)-1H-pyrazole-3-carboxylic acid (2,4-dicyclopropyl-pyrimidin-5-ylmethyl)-amide hydrochloride]"
10,< 100 nM,"Cc1cccc(-n2nc(C)c(CNC(=O)c3cc(NC(=O)c4cc(F)c(F)cc4Cl)[nH]n3)c2C)c1 [Example 1-66, 5-(2-chloro-4,5-difluoro-benzoylamino)-1H-pyrazole-3-carboxylic acid [3,5-dimethyl-1-(3-methyl-phenyl)-1H-pyrazol-4-ylmethyl]-amide]"
